The values below are quoted from earlier work in US11433115B2, “Glycopeptide antibiotics liquid formulations and methods and uses thereof” (SOMERSET THERAPEUTICS, LLC, priority 2020, dated 2022).

Where two headings read alike, the source gives them in different places.

The conditions of data set [1]: orally-dosed pigs, ˜382 mg/kg.
The test system of the next data set is rats. The settings on record: rat, in vivo.
The subject of another data set is acylases. Particulars: via the action of acylases.

Turning to `CC(=O)N[C@H](C)C(=O)O` [NADA, N-acetyl D-alanine], under “animal reproduction studies”, the embryo-fetal toxicity result is listed as “caused fetal malformations”.

Regarding `CSCC[C@@H](NC(C)=O)C(=O)O` [NADM, N-acetyl-D-methionine], in data set [1], the “hydrolysis to D- and L-methionine” value is given as “only minimally hydrolyzed”; the “time to peak plasma concentration after dosing” value was 15 min.

`CSCCC(NC(C)=O)C(=O)O` (racemic) [N-acetyl-DL-methionine]: the LD50 in the data set with rats (ip) was 6700 mg/kg.

`CSCC[C@H](NC(C)=O)C(=O)O` [NALM, N-acetyl-L-methionine]: the “hydrolysis to L-methionine and acetic acid” value in the data set on acylases is listed as “completely hydrolyzed”. Also, the LD50 with rats (iv) is 435 mg/kg.

For the compound polyethylene glycol [PEG 400], the embryo-fetal toxicity result (in vivo) was “caused fetal malformations”.
